# Assay results published in patent US20250051283A1, “THERAPEUTIC COMPOUNDS AND METHODS” (priority 2023, published 2025).
# What was measured:
# EV-D68 2A^pro = EV-D68 2A^pro (Enterovirus D68, UniProt A0A097BW19); test: FRET-based enzymatic assay of EV-D68 2Apro inhibition; type: biochemical
# Procedure: Protein expression and purification. EV-D68 2A^pro gene from strain US/KY/14-18953 was ordered from Genscript (Piscataway, NJ) in pET28b(+) vector with E. coli codon optimization. 2A^pro gene was subcloned into pE-SUMOstar vector according to the manufacturers protocol. Plasmid encoding WT-2A^pro was transformed into BL21(DE3) competent E. coli cells, and a single colony was picked and used to inoculate 10 mL of L.B. grown supplemented with 50 μg/mL kanamycin at 37° C. at 250 rpm. The 10 mL inoculant was added to 1 L of L.B. with 50 μg/mL kanamycin and grown to an OD600 of 0.8-1.0, cooled to 18° C., then induced using 0.5 mM IPTG. Induced cultures were incubated at 18° C. for an additional 24 h, then harvested and resuspended in lysis buffer (25 mM Tris (pH 7.5); 750 mM NaCl, 2 mM DTT with 0.5 mg/mL lysozyme, 0.5 mM PMSF and 0.02 mg/mL DNase I) and lysed with alternating sonication and French press cycles. The cell debris were removed by centrifugation at 12,000×g for 45 min […]. The supernatant was incubated with Ni-NTA resin for over 2 h at 4° C. on a rotator. The Ni-NTA resin was thoroughly washed with 50 mM imidazole in wash buffer (50 mM Tris (pH 7.5), 150 mM NaCl, and 2 mM DTT); for the SUMO-tagged protein, the protein was directly eluted with 300 mM imidazole; for the nontagged 2A^pro Ni-NTA resin was treated with SUMO Protease 1 to remove the SUMO tag, then 2A^pro was washed off from the column with 10 mM imidazole in wash buffer. The imidazole was removed via dialysis or 10 K molecular weight cut-off centrifugal concentrator spin column. The purity of the protein was confirmed with SDS-PAGE. The protein concentration was determined by classic BCA assay using bovine serum albumin as a standard. EV-D68 3C^pro in pET28b(+) vector was expressed as previously described^10.
# Peptide synthesis. The FRET substrate of EV-D68 2A^pro, Dabcyl-KIRIVNT/GPGFGGE-Edans, was synthesized using the Fmoc solid phase synthesis strategy.
# Enzymatic assays. The reaction buffer contains 50 mM Tris (pH7.0), 150 mM NaCl, 10% Glycerol, and 2 mM DTT, and the reaction was carried out at 30° C. in Cytation 5 imaging reader (Fisher Scientific) with EX360/40-EM460/40 filter. Reactions were monitored every 90 sec. […] The reaction was initiated by adding 20 μM of FRET substrate, and the reaction was monitored for 2 hours and initial velocity was calculated for the first 30 minutes via linear regression.
# EV-D68 US/MO/14-18947 = test: CPE assay (neutral red) with EV-D68 US/MO/14-18947 in R.D. cells; type: cell-based, Enterovirus D68; conditions: CPE assay, EV-D68 US/MO/14-18947 in R.D. cells
# Outline: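 R.D. cells infected (DMEM, 2% FBS, 30 mM MgCl2) for ≥1 h at 33° C before compound addition; CPE read by neutral red uptake ([…], 2 h, A540), plaque reduction under 1.2% avicel overlay, stained after 3 days. EC50 and CC50 (uninfected cells) from dose-response curve fits.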
# [1] = Cytotoxicity by neutral red uptake in R.D. cells, no viral infection; type: cell-based, Human; conditions: human, R.D. (rhabdomyosarcoma, ATCC CCL-136) cells, uninfected
# Procedure: (§1) Cell lines and viruses. Human rhabdomyosarcoma (R.D., ATCC, CCL-136) cells were maintained at 37° C. in a 5% CO2 atmosphere and cultured in Dulbecco's modified Eagle's medium (DMEM) supplemented with 10% fetal bovine serum (FBS) and 1% penicillin-streptomycin antibiotics. The following reagents were obtained through BEI Resources, NIAID, NIH: Human Enterovirus D68, US/MO/14-18949, NR-49130; Enterovirus D68, US/MO/14-18947, NR-49129; Enterovirus D68, US/IL/14-18952, NR-49131; Enterovirus D68, US/KY/14-18953, NR-49132; Enterovirus D68, US/IL/14-18956, NR-49133.
# (§2) Antiviral assays. Cells for antiviral assays were seeded and grown overnight at 37° C. in a 5% CO2 atmosphere for ˜90% confluency the next day. For all infections, cells were washed with PBS containing magnesium and calcium and infected with virus diluted in DMEM with 2% FBS and 30 mM MgCl2. Viruses were incubated for at least 1 h at 33° C. in a 5% CO2 atmosphere, followed by the addition of compound as well as 1% penicillin-streptomycin. For CC50 measurements, the experiment was performed similarly but excluded viral infection. For cytopathic effect (CPE) assays, cells were stained with 66 µg/mL neutral red for 2 h and neutral red uptake was measured at absorbance 540 nm using a Multiskan FC Microplate Photometer (ThermoFisher Scientific). The EC50 and CC50 values were calculated from best-fit dose response curves using GraphPad Prism. For plaque reduction assays, an 1.2% avicel microcrystalline cellulose (FMC BioPolymer, Philadelphia, PA) overlay was used and cells were stained after 3 days as previously described^26.
# [2] = system: EV-D68 US/MO/14-18947 (clade B1); test: Broad-spectrum antiviral activity (Table 1), US/MO/14-18947; type: cell-based; conditions: Enterovirus D, EVD68
# Procedure: as §1
# as §2, with “For CC50 measurements, the experiment was performed similarly but excluded viral infection.” left out, “For plaque reduction assays, an 1.2% avicel microcrystalline cellulose (FMC BioPolymer, Philadelphia, PA) overlay was used and cells were stained after 3 days as previously described^26.” left out
# [3] = system: EV-D68 US/IL/14-18952 (clade B2); test: Broad-spectrum antiviral activity (Table 1), US/IL/14-18952; type: cell-based, Enterovirus D68; conditions: Enterovirus D, EVD68; EV-D68 US/IL/14-18952 (clade B2); read-out: EC50
# Procedure: as §1
# as §2, with “For CC50 measurements, the experiment was performed similarly but excluded viral infection.” left out, “For plaque reduction assays, an 1.2% avicel microcrystalline cellulose (FMC BioPolymer, Philadelphia, PA) overlay was used and cells were stained after 3 days as previously described^26.” left out
# [4] = system: five strains of EV-D68 (B1, B2, and D clades); test: Broad-spectrum antiviral activity, summary over five EV-D68 strains; type: cell-based, Enterovirus D68
# Procedure: as §1
# as §2, with “For CC50 measurements, the experiment was performed similarly but excluded viral infection.” left out, “For plaque reduction assays, an 1.2% avicel microcrystalline cellulose (FMC BioPolymer, Philadelphia, PA) overlay was used and cells were stained after 3 days as previously described^26.” left out
# Sequence of EV-D68 2A^pro (A0A097BW19 entry or part of it): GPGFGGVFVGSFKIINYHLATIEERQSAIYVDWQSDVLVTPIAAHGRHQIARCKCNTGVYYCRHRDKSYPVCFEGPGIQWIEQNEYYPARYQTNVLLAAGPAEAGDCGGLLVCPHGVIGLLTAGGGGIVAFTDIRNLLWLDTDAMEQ
compound,measurement,setting,value
"CC(C)(C)C(NC(=O)CC12CC3CC(CC(C3)C1)C2)C(=O)N1CC2CCCC2C1C(=O)NC(C(=O)C(=O)NC1CC1)C1CCCCC1 [Jun11762, (1S,3aR,6aS)-2-((S)-2-(2-((3S,5S,7S)-adamantan-1-yl)acetamido)-3,3-dimethylbutanoyl)-N—((S)-1-cyclohexyl-3-(cyclopropylamino)-2,3-dioxopropyl)octahydrocyclopenta[c]pyrrole-1-carboxamide]","enzymatic inhibition, in words, relative to the named comparator",EV-D68 2A^pro,comparable enzymatic inhibition and antiviral activity as Jun8861
same,"antiviral activity, in words, relative to the named comparator",EV-D68 US/MO/14-18947,comparable enzymatic inhibition and antiviral activity as Jun8861
same,CC50,[1],> 150 µM
same,EC50,[2],43 ± 3.3 nM
same,EC50,[3],269 ± 21.9 nM
same,EC50,"[4]; Enterovirus D, EVD68, read-out: EC50 values over all five strains",43 to 269 nM
same,fold improvement of EC50 compared to telaprevir,"[4]; five EV-D68 strains, versus telaprevir",3.1-4.6 fold
